Patent US6482436B1, “Magnetically responsive composition” (FeRx Incorporated, priority 1993, dated 2002)
In brackets after ≈: the same amount, converted by molar mass.

Experiments:
[1] = Adsorption curves and adsorption constants of pharmaceutical agents on iron:carbon carrier particles; format: physicochemical
Protocol: Adsorption upon the particles of various types of pharmaceutical agents at a range of concentrations of the pharmaceutical agent in the absorption solution was performed to determine the absorption curves and absorption constants for each compound as follows: A 16-mer anti-C-Myc oligonucleotide useful in antisense gene-directed therapy is an all phosphorothioate oligodeoxynucleotide, fluorescein-labeled at 5′ end (Macromolecular Resources, Fort Collins, Colo.). […] Unbound drug in adsorption supernatants was determined from the fluorescein fluorescence (Exc. 495 nm, em. 549 nm) using a standard curve. Hematoporphyrin dihydrochloride (Sigma Chemical, USA, H-1875, Lot #23H0879) is a photosensitizer useful in tumor therapy. The compound accumulates by biological processes in certain types of tumor tissue. Upon exposure to light, such as provided by a laser, the compound undergoes a chemical transformation to produce oxygen singlets that are toxic to cells in which it has accumulated. A stock adsorption solution was prepared and drug concentration was determined by spectrophotometry according to G. Garbo et al. Anal. […] The adsorption equation determined by computer analysis using commercially available software was: […] 6-Mercaptopurine sodium salt (provided by Dr. Gruber, Burroughs Wellcome, Lot #7P2774) is an anti-inflammatory agent. […] Drug concentration in adsorption supernatants was determined by spectrophotometry (standard curve: […] Drug concentrations in adsorption supernatants determined by spectrophotometry yielded the following equation for the concentration curve: […] Drug concentration in adsorption supernatants as determined by spectrophotometry yield the following equation for the concentration curve: […] Concentration was determined by absorbance at 253 nm (λmax=253 nm in saline solution).

[2] = system: carcinosarcoma Walker 256; assay: Treatment of Walker 256 carcinosarcoma under the tail skin of rats: life span and tumor dissolution; format: in vivo, rats of the Wistar Line; conditions: group II; water solution i.v. 2 mg/kg during 5 days; versus control group I (21±1.5 days); P<0.05
Protocol: Tests were carried out on male rats of the Wistar Line (bred at Stolbovaya Station of the USSR Academy of Medical Sciences). The rats were infused with carcinosarcoma Walker 256 under the tail skin. When the tumorous volume averaged 986±98 mm^3 the animals were divided into 4 groups, 10 rats in each. The first group (group I) was a control group, and groups II through IV were experimental groups.
The animals in group II were given intravenous injections of a water solution of rubomicine in the amount of 2 mg/kg of body weight during 5 days (the model of traditional use of such anti-cancerous preparations in clinics). The rats in group III were injected with a suspension of ferrocarbon dispersion produced by the previously known method described in European Patent Office Publication No. 0 451 299 A1. The particles comprised iron/carbon in a volume percent ratio of 60:40. The dosage of ferrocarbon particles was 160 mg/kg of body weight, and the dosage of adsorbed rubomicine thereon was 3.2 mg/g of particles. This suspension was injected into the tail vein after placing on the surface of the tumor a permanent magnet with a magnetic field intensity of 6000 oersteds. Localization of the suspension in the tumorous growth zone under control of the externally placed magnetic field was monitored by x-ray pictures. […]

[3] = Octanol/buffer (pH 7.4) partition coefficient; format: physicochemical
Source text: (§1) Certain porphyrins are photosensitizing compounds useful in photodynamic therapy against tumors. […] Several classes of photosensitizers were screened for comparative binding to iron:carbon particles of various composition. The wavelength near the activation wavelength (often the λmax) of a particular photosensitizer was used for quantitative drug measurements. […] The photosensitizers tested were hematoporphyrin derivative (HPD); benzoporphyrin derivative monoacid A (BPD-ma); Photofrin® porfimer sodium (PF2); and clorin e6. For the binding studies, 10 mg of carbon or 50 mg of iron:carbon particles were optimum. An octanol/buffer (pH 7.4) partition coefficient for the four compounds was as follows: HPD=1; chlorin e6=1.1; PF2=0.1≧; and BPD-ma=4000>.

[4] = Comparative binding of photosensitizers to iron:carbon particles; format: physicochemical; conditions: 80 mcg/ml (0.11 mM) in PBS pH 7.4, 50 mg particles
Source text: as §1

[5] = Binding and release of BPD-ma with prototype iron:carbon carrier particles (MTCs); format: physicochemical; conditions: from a 10-fold increase in the initial concentration of the drug; isopropanol medium, 18 hours
Protocol: In order to achieve higher loading levels of BPD-ma, the binding capacity and fractional binding of the drug to four prototype iron:carbon carrier particles (MTCs, or, magnetic targeted compounds) was tested using 1.4 mM drug in isopropanol (with 0.5% 0.02 M acetic acid) as the adsorption medium and a longer equilibration period of 18 hours.

tumor cells in culture = assay: In vitro cytotoxicity evaluation with magnetic field retention of carrier particles; format: cell-based; conditions: Homo sapiens; released paclitaxel: with or without magnet
Protocol: The IC50 for free paclitaxel alone was identical (5 ng/mL) to paclitaxel released from the carrier particles with or without magnet (5 ng/mL).

[6] = system: human squamous carcinoma cell line, SCC-9; assay: Long-term CF clonogenic assay; format: cell-based; conditions: colonies after 2-3 weeks
Protocol: A separate long-term CF clonogenic assay was evaluated concurrently. In this assay, cells were plated on 35 mm petri dishes and exposed to drug and controls as outlined above. Treated cells were incubated for 2-3 weeks to allow time for colonies to establish. These colonies were fixed in 2% acetic acid and 8% ethanol and stained with crystal violet. The colonies were counted under a Bella Glass Plate Reader.

[7] = Release of adsorbed Re into saline over 24 hours; format: physicochemical
Protocol: (§2) An adaptation of a colorimetric Re assay used in the field of metallurgy was used to determine the adsorption of the Re onto carrier particles having a 70:30 iron:carbon ratio. In brief, a 0.1 to 0.5 ml sample was placed in a solution containing 1.0 ml of HCl, 1.3 ml of −α furildoxime (6% in acetone), 0.5 ml of 10% stannous chloride and sufficient water to make 5.0 ml. The mixture was heated to 45° C. for 20 minutes and allowed to cool to room temperature. The absorbance of Re in the solution was measured at 532 nm. The sensitivity of the assay was to about 5 mcg Re. […] As with other drugs, the % binding of Re in the adsorption medium decreases as the Re to carbon ratio increases. […] Release over 24 hours of the Re into physiological saline at ambient temperature from the various carbons preloaded with adsorbed Re was 50% by weight.
Less than 10% of the Re was released upon incubation under efflux conditions in saline over 24 hours. The low binding of Re to the carrier particles is consistent with the low binding of other charged, small ionic molecules to activated carbon as compared with the high affinity binding of hydrophobic aromatic molecules. These findings are consistent with use of the carrier particles of the invention with adsorbed Re or Tc as imaging and therapeutic agents.

[8] = Re binding to a series of carbons (colorimetric Re assay); format: physicochemical; conditions: ambient temperature
Protocol: as §2

[9] = Effect of adsorption medium composition on Dox binding to carrier particles; format: physicochemical; conditions: six test adsorption media; particles first in viscosity agent, Dox/saline added later
Protocol: Additional studies were conducted to compare the effect of the composition of the adsorption solution on the binding of the Dox to carrier particles having an iron:carbon ratio in the range 60:40 to 80:20. The following six test adsorption media compositions were formulated to provide sufficient viscosity to keep the carrier particles physically separate during adsorption of the Dox. The particles were first placed in the viscosity agent and the Dox/saline solution was later added.
1. 10% mannitol; 2% sodium carboxymethyl cellulose (CMC) (medium viscosity); 2% polyvinyl pyrrolidone (PVP in 50 mM citrate phosphate buffer
2. 5% mannitol; 2% CMC; 2% PVP in 50 mM citrate phosphate buffer.
3. 5% mannitol; 2% CMC; 2% PVP; 5% sorbitol in 50 mM citrate phosphate buffer.
4. 10% mannitol; 1% CMC; 2% PVP (K15) in 10 mM potassium phosphate buffer (pH 7.4).
5. 10% mannitol; 1% sodium CMC; potassium phosphate buffer (pH 7.4).
6. 5% sorbitol; 1% sodium CMC; 2% PVP (K1 5); 5% mannitol; in potassium phosphate buffer (pH 7.4)

[10] = 75:25 Type K, Saline solution, equilibration 0.5 hr
[11] = 80:20 Type K, 0.9% NaCl, pH 10.4, equilibration 2 hrs

octanol/buffer partition coefficient [3] | Molecule | % binding, % ([4]; iron:carbon 30:70 Type A) [%] | % binding, mg/mg % ([4]; iron:carbon 30:70 Type A) [mg/mg %] | % binding, % ([4]; iron:carbon 30:70 Type E) [%] | % binding, mg/mg % ([4]; iron:carbon 30:70 Type E) [mg/mg %] | also measured
1.1 | clorin e6 | 69.9 | 0.8 | 68.8 | 0.7 | 
≤ 0.1 | Photofrin® porfimer sodium [PF2] | 11.4 | 0.13 | 7.2 | 0.08 | 

Further lines, the molecule ahead of its results:

Molecule | octanol/buffer partition coefficient [3] | % binding, % ([4]; iron:carbon 30:70 Type A) [%] | % binding, mg/mg % ([4]; iron:carbon 30:70 Type A) [mg/mg %] | % binding, % ([4]; iron:carbon 30:70 Type E) [%] | % binding, mg/mg % ([4]; iron:carbon 30:70 Type E) [mg/mg %] | also measured
CC[C@@]1(O)C(=O)OCc2c1cc1n(c2=O)Cc2cc3ccccc3nc2-1 [Camptothecin] |  |  |  |  |  | Adsorption constant [1, 10]: 521 (mg/ml)^−1; Maximum adsorption (% of carrier weight) [1, 10]: 11 % of carrier weight; Maximum adsorption (% of carrier weight) ([1]; 80:20 Type K, C/E 1:1 (chloroform:ethanol), equilibration 3 hrs, footnote: Below detection limit): 0^2 % of carrier weight
Sc1ncnc2nc[nH]c12.[Na] [6-MP Mercaptopurine, 6-Mercaptopurine sodium salt] |  |  |  |  |  | Adsorption constant [1, 11]: 0.24 ± 0.064 (mg/ml)^−1; Maximum adsorption (% of carrier weight) [1, 11]: 11.0 ± 0.97 % of carrier weight
COc1cccc2c1C(=O)c1c(O)c3c(c(O)c1C2=O)C[C@@](O)(C(C)=O)C[C@@H]3O[C@H]1C[C@H](N)[C@H](O)[C@H](C)O1 [rubomicine] |  |  |  |  |  | life span following treatment increased by an average of [2]: 4.5 days
benzoporphyrin derivative monoacid A [BPD-ma] | > 4000 | 30.1 | 0.33 | 23.0 | 0.25 | increase in binding capacity [5]: 30 fold
CC(=O)O[C@H]1C(=O)[C@@]2(C)[C@H]([C@H](OC(=O)c3ccccc3)[C@]3(O)C[C@H](OC(=O)[C@H](O)[C@@H](NC(=O)c4ccccc4)c4ccccc4)C(C)=C1C3(C)C)[C@]1(OC(C)=O)CO[C@@H]1C[C@@H]2O [paclitaxel] |  |  |  |  |  | IC50 (tumor cells in culture): 5 ng/mL (≈ 5.86 nM); IC50 [6]: 3 ng/mL (≈ 3.51 nM)
[Re] [Re, rhenium] |  |  |  |  |  | Re released over 24 hours ([7]; from iron:carbon carrier particles, efflux conditions in saline): Less than 10%; release of Re over 24 hours ([7]; from the various carbons preloaded with Re, physiological saline, ambient temperature): 50 % by weight; Re binding to a series of carbons ([8]; 30 mg carbon in the adsorption medium): about 35%; Re binding to a series of carbons ([8]; 180 mg carbon in the adsorption medium): about 90%
COc1cccc2c1C(=O)c1c(O)c3c(c(O)c1C2=O)C[C@@](O)(C(=O)CO)C[C@@H]3O[C@H]1C[C@H](N)[C@H](O)[C@H](C)O1 [doxorubicin] |  |  |  |  |  | adsorption of Dox to the carrier particles by adsorption medium [9]: highest adsorption of Dox to the carrier particles was obtained using formulae 4, 5, and 6
hematoporphyrin derivative [HPD] | 1 | 41.9 | 0.5 | 37.0 | 0.4 | 
C[C@@H]1[C@H](O)[C@@H](C)/C=C/C=C/C=C/C=C/C=C/C=C/C=C/[C@H](O[C@@H]2O[C@H](C)[C@@H](O)[C@H](N)[C@@H]2O)C[C@@H]2O[C@](O)(C[C@@H](O)C[C@@H](O)[C@H](O)CC[C@@H](O)C[C@@H](O)CC(=O)O[C@H]1C)C[C@H](O)[C@H]2C(=O)O [Amphotericin B] |  |  |  |  |  | Maximum adsorption (% of carrier weight) ([1]; 80:20 Type K, 0.9% NaCl pH 12 (KOH), equilibration 24 hrs): 10.4 ± 0.55 % of carrier weight
